# Literature values as cited in patent US20080112943A1, “Biosynthetic Polypeptide Fusion Inhibitors” (priority 2005, published 2008).
# What was measured:
# [1] = biological target: T1, N-formyl peptide receptor (Homo sapiens, UniProt P21462); conditions: human phagocytes
# T1 construct: host or cells: human phagocytes (endogenous receptor)
# T1 sequence (P21462 1-350): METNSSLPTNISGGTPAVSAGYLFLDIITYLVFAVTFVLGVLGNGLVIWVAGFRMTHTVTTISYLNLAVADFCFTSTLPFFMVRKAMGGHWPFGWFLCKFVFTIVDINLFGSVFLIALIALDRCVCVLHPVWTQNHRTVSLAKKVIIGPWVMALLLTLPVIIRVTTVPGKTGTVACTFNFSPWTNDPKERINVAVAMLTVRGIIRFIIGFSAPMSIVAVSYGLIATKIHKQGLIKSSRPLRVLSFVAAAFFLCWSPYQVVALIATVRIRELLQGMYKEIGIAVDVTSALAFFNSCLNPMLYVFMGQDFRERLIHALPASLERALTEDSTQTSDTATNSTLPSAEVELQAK
# [2] = system: monocytes and neutrophils
# [3] = in vitro studies and in animals
substance,measurement,setting,value
enfuvirtide,activation of the N-formyl peptide receptor,[1],activates
same,chemoattractant and activator of monocytes and neutrophils,[2],chemoattractant and activator
same,"inhibition of HIV-1 mediated CD-4+ cell-cell fusion (i.e., syncytial formation) and infection of CD-4+ cells by cell-free virus",HIV-1,potent inhibitor
same,toxicity,[3],non-toxic
